Source: patent US20260062443A1 (ALEXION PHARMACEUTICALS, INC., priority 2022, published 2026)

Target: T1, Human complement C1s enzyme (Homo sapiens, UniProt P09871)
T1 sequence (P09871 438-688 limits assumed): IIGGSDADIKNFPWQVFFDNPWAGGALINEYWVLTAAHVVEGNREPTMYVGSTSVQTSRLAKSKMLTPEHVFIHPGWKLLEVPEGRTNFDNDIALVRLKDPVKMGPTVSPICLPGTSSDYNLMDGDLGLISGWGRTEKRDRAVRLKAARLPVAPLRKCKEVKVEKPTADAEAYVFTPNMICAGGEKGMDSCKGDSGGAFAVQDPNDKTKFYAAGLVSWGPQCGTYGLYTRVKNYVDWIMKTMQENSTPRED
T1 sequence (P09871 16-437 partner limits assumed): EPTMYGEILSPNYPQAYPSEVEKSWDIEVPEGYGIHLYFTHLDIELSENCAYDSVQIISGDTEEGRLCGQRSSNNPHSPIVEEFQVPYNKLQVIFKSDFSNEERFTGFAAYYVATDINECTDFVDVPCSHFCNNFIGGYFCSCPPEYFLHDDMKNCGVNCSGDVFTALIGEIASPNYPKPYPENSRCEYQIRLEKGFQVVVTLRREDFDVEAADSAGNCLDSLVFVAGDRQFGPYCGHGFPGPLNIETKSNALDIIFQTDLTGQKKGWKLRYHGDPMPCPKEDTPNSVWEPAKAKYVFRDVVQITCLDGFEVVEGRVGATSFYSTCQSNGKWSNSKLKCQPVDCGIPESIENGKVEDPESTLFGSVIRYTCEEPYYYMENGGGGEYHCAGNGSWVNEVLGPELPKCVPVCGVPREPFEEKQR
Assay: Human C1s enzyme assay
Assay type: biochemical
Conditions: human complement C1s enzyme 1.16 nM, substrate Z-L-Lys-SBzl 100 μM, 5 min preincubation; read-out: IC50 (Stars), C1s Inhibiting Activity
How it was run: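 IC50 from nonlinear regression of reaction rates versus compound concentration, with rates taken from A405 recorded at 30 s intervals over 30 min after adding 100 μM Z-L-Lys-SBzl plus 100 μM DTNB. Enzyme was human C1s purified from serum, 1.16 nM, given 5 min compound preincubation at room temperature, pH 7.5 Tris/1 M NaCl.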

Row | Structure (SMILES) | IC50
1 | O=C(NCC(=O)N1CC2(C[C@H]1C(=O)N[C@H](CO)c1cc3cnccc3[nH]1)OCCO2)c1ccc(Oc2ccc(F)cc2)cc1 [Compound 94, (S)-7-((4-(4-fluorophenoxy)benzoyl)glycyl)-N-((S)-2-hydroxy-1-(1H-pyrrolo[3,2-c]pyridin-2-yl)ethyl)-1,4-dioxa-7-azaspiro[4.4]nonane-8-carboxamide] | > 1000 nM
2 | COC[C@@]1(F)C[C@@H](C(=O)N[C@H](CO)c2cc3cnccc3[nH]2)N(C(=O)CNC(=O)c2ccc(Oc3ccc(F)cc3)cc2)C1 [Compound 97, (2S,4R)-4-fluoro-1-((4-(4-fluorophenoxy)benzoyl)glycyl)-N-((S)-2-hydroxy-1-(1H-pyrrolo[3,2-c]pyridin-2-yl)ethyl)-4-(methoxymethyl) pyrrolidine-2-carboxamide] | > 1000 nM
3 | C[C@@]12C[C@@H]1N(C(=O)CNC(=O)c1ccc3c(c1)Oc1ccccc1S3)[C@H](C(=O)NCc1cc3cc(B(O)O)ccc3[nH]1)C2 [Compound 291, (2-(((1S,3S,5S)-5-methyl-2-((phenoxathiine-3-carbonyl)glycyl)-2-azabicyclo[3.1.0]hexane-3-carboxamido)methyl)-1H-indol-5-yl)boronic acid] | > 1000 nM
4 | C[C@@H](NC(=O)[C@@H]1C[C@]2(C)C[C@@H]2N1C(=O)CN1Cc2cc(-c3ccc(F)cc3)ccc2C1=O)c1cc2cnccc2[nH]1 [Compound 116, (1S,3S,5S)-N-((R)-1-(1H-pyrrolo[3,2-c]pyridin-2-yl)ethyl)-2-(2-(5-(4-fluorophenyl)-1-oxoisoindolin-2-yl)acetyl)-5-methyl-2-azabicyclo[3.1.0]hexane-3-carboxamide] | > 1000 nM
5 | Cc1ccc(Oc2cccc(C(=O)NCC(=O)N3CCC[C@H]3C(=O)NCc3cc4cnccc4[nH]3)c2)c(F)c1 [Compound 310, (S)-N-((1H-pyrrolo[3,2-c]pyridin-2-yl)methyl)-1-((3-(2-fluoro-4-methylphenoxy)benzoyl)glycyl)pyrrolidine-2-carboxamide] | < 100 nM
6 | C[C@@]12C[C@@H]1N(C(=O)CNC(=O)c1cccc(-c3ccccc3)n1)[C@H](C(=O)NCc1cc3cnccc3[nH]1)C2 [Compound 159, (1S,3S,5S)-N-((1H-pyrrolo[3,2-c]pyridin-2-yl)methyl)-5-methyl-2-((6-phenylpicolinoyl)glycyl)-2-azabicyclo[3.1.0]hexane-3-carboxamide] | > 1000 nM
7 | Cc1ccc(Oc2cccc(C(=O)NCC(=O)N3[C@H]4C[C@@]4(C)C[C@H]3C(=O)N[C@H](C)c3cc4cnccc4[nH]3)c2)c(F)c1 [Compound 320, (1S,3S,5S)-N-((R)-1-(1H-pyrrolo[3,2-c]pyridin-2-yl)ethyl)-2-((3-(2-fluoro-4-methylphenoxy)benzoyl)glycyl)-5-methyl-2-azabicyclo[3.1.0]hexane-3-carboxamide] | < 100 nM
8 | C[C@@]12C[C@@H]1N(C(=O)CNC(=O)c1ccc3oc4ccccc4c3c1)[C@H](C(=O)NCc1cc3cnccc3[nH]1)C2 [Compound 203, (1S,3S,5S)-N-((1H-pyrrolo[3,2-c]pyridin-2-yl)methyl)-2-((dibenzo[b,d]furan-2-carbonyl)glycyl)-5-methyl-2-azabicyclo[3.1.0]hexane-3-carboxamide] | < 100 nM
9 | C[C@@H](NC(=O)[C@@H]1C[C@@H](OC(F)F)CN1C(=O)CNC(=O)c1cccc(Oc2ccc(F)cc2)c1)c1cc2cnccc2[nH]1 [Compound 241, (2S,4R)-N-((R)-1-(1H-pyrrolo[3,2-c]pyridin-2-yl)ethyl)-4-(difluoromethoxy)-1-((3-(4-fluorophenoxy)benzoyl)glycyl) pyrrolidine-2-carboxamide] | < 100 nM
10 | Cc1ccc(Oc2ccc(F)c(C(=O)NCC(=O)N3C[C@H](OC(F)F)C[C@H]3C(=O)NCc3cc4cnccc4[nH]3)c2)c(F)c1 [Compound 322, (2S,4R)-N-((1H-pyrrolo[3,2-c]pyridin-2-yl)methyl)-4-(difluoromethoxy)-1-((2-fluoro-5-(2-fluoro-4-methylphenoxy)benzoyl)glycyl) pyrrolidine-2-carboxamide] | < 100 nM
